The test system of this experiment is MAP-rich tubulin. The experiment can be described thus: 96-well plate polymerization assay of tubulin ligands with lyophilized active tubulin. To be noted: for rate of polymerization with increasing concentration: 20 minutes at 24° C., 100 μg/well MAP-rich tubulin; for effect on microtubule polymerization (O.D. 340 nm): 60 minutes at 24° C., 96-well plate. In kind it is biochemical, bovine.

Procedure: The dried powder was resuspended to 1 mg/ml protein in the G-PEM buffer that contained different tubulin ligands. The reactions were incubated at 24° C. and the optical density was determined between T=O and T=60 min. Wells A1, A2—duplicate control reactions; wells B1, B2—Duplicate 3 uM nocodazole reactions, and wells C1, C2—Duplicate 3 uM paclitaxel reactions. Other duplicate wells contained buffer with a random concentration of nocodazole between 0-30 uM.
Similar protocols were performed as in FIG. 9 legend except that paclitaxel was present at different concentrations and assays were performed in triplicate. Average nucleation (Onset) times, polymerization rates and maximum OD340 nm were compared to the control reactions (no drug) using CytoDYNAMIX Screen™ data analysis package (Cytoskeleton, Inc.).
Similar protocols were performed as in FIG. 9 legend except that nocodazole was present at different concentrations and assays were performed in triplicate. Average nucleation (Onset) times, polymerization rates and maximum OD340 nm were compared to the control reactions (no drug) using CytoDYNAMIX Screen™ data analysis package (Cytoskeleton, Inc.).
Nocodazole is similarly used as a negative control since it depolymerizes microtubules. Substances that may potentially have an effect on microtubule polymerization can be assayed by this method in which the optical density was measured at 340 nm over 60 minutes at a temperature sufficient to support polymerization (i.e., 15-45° C., preferably 24° C. for MAP-rich or 37° C. for pure tubulin).
MAP-rich tubulin (100 μg/well) was lyophilized under the optimal conditions described in Example 1, in a 96-well plate. Ninety-six wells in a 96-well plate of lyophilized tubulin can be simultaneously reconstituted and their polymerization measured (See FIG. 8). […] In a similar manner, using an 8-channel hand held pipettor, various random nocodazole concentrations were tested for activity. In addition, controls were added to the assay. […] Nocodazole was similarly used as a negative control since it depolymerizes microtubules. The optical density was measured at 340 nm over 60 minutes at 24° C. as an indication of microtubule polymerization (See FIG. 9).
Paclitaxel and nocodazole, anti-tumor agents, were assayed in G-PER buffer with lyophilized active tubulin.

For the compound `COC(=O)Nc1nc2ccc(C(=O)c3cccs3)cc2[nH]1` [nocodazole], the “rate of polymerization with increasing concentration” value was “decrease in the rate of polymerization” and the “effect on microtubule polymerization (O.D. 340 nm)” value is recorded as “negative”.
The corresponding values for `CC(=O)O[C@H]1C(=O)[C@@]2(C)[C@H]([C@H](OC(=O)c3ccccc3)[C@]3(O)C[C@H](OC(=O)[C@H](O)[C@@H](NC(=O)c4ccccc4)c4ccccc4)C(C)=C1C3(C)C)[C@]1(OC(C)=O)CO[C@@H]1C[C@@H]2O` [paclitaxel] are “increased rate of polymerization” and “enhancing”.
